# Experimental data reported in US12552854B2, “Peptides that block presentation of antigenic islet peptides by HLA-DQ8 and methods for treating type-1 diabetes” (Icahn School of Medicine at Mount Sinai, priority 2019, dated 2026).
# “Also recorded” adds a separate entry of the source.
# How the values were obtained:
# [1] = target: T1, recombinant HLA-DQ8 protein (Homo sapiens, UniProt P01909+P01920); test: DELFIA immunoassay: inhibition of biotinylated InsB:9-23 binding to recombinant HLA-DQ8
# T1 construct: contained the extracellular portion of the DQA1*0301 α chain fused to the coiled-coil region of the basic leucine zipper domain of Fos; contained the extracellular portion of the DQB1*0302 β chain fused to the coiled-coil region of the basic leucine zipper domain of JunB; Fos leucine zipper (coiled-coil region) (C); TEV protease site (internal); His6; JunB leucine zipper (coiled-coil region) (C); FLAG; host or cells: baculovirus system
# Excerpt: HLA-DQ8 protein was produced using the baculovirus system. Two constructs were designed for both the α and the β chains of HLA-DQ8. The β chain construct contained the extracellular portion of the DQB1*0302 β chain fused to the coiled-coil region of the basic leucine zipper domain of JunB, and the α chain construct contained the extracellular portion of the DQA1*0301 α chain fused to the coiled-coil region of the basic leucine zipper domain of Fos. […] A tobacco etch virus protease cutting site was introduced in each chain to allow removal of the dimerization motif. The JunB and Fos dimerization motifs were added in order to allow the α and β chains to dimerize and form the final HLA-DQ8 protein (FIG. 12A). These constructs were used to produce the HLA-DQ8 protein in a baculovirus system using the Life Technologies Baculovirus protein production custom services (Carlsbad, CA).
# D-peptides were produced by Fisher Scientific (Hanover Park, IL) in dry form and dissolved in PBS. All D-peptides were screened at a concentration of 10 μM for their ability to bind to the HLA-DQ8 pocket and block it from binding the InsB:9-23 peptide using a unique immunoassay (23). […] After washing 4 times, DELFIA Europium-labeled streptavidin (PerkinElmer) diluted in DELFIA assay buffer (PerkinElmer) was added for 30 minutes and shaken at slow speed at room temperature. Since the InsB:9-23 peptide was biotinylated the complex HLA-DQ8-InsB:9-23 peptide could be detected using the Europium-labeled streptavidin. After washing for 6 times, DELFIA Enhancement Solution was added for 1 hour or until the optimal signal was reached. Time-resolved fluorescence was measured using the BMG reader (BMG Labtech, Cary, NC). The experiment was performed in triplicate. As a negative control biotinylated InsB:9-23 peptide that was not pre-incubated with HLA-DQ8 was added to the nickel coated plates.
# Immunoassay was performed as described above.
# [2] = tested on: PBMCs isolated from DQ8 positive T1D patients; test: Cytokine production in PBMCs from DQ8 positive recent-onset T1D patients; type: cell-based, human; settings: stimulated with InsB:9-23 for 48 h; all peptides at 50 μg/ml
# Excerpt: Subjects with a diagnosis of T1D within the previous 2 years were recruited from the Pediatric Endocrine clinic at Children Hospital at Montefiore and from the adult Endocrine clinics at Montefiore and Mount Sinai Hospitals (New York). Peripheral blood mononuclear cells (PBMCs) were isolated from heparinized blood using Ficoll-Paque (GE Healthcare); freshly isolated PBMCs were used for T-cell activation studies and for genotyping. DNA purified from the blood of the patients was typed for HLA-DQ as previously described (32). PBMCs isolated from DQ8 positive patients were seeded in 96 well plates with 200 μl medium (RPMI, 10% FBS). […] The stimulated PBMCs were assessed for cytokine production and T-cell proliferation as described above for mouse splenocytes. DQ8 typed patients with long standing T1D (>10 years) were used as negative controls in the experiments (no T-cell responses to islet peptides).
# [3] = target: T2, HLA-DQ8 expressed on BSM cells (Homo sapiens, UniProt P01909+P01920, F237L); test: Flow cytometric analysis of InsB:9-23 peptide binding to BSM cells; type: cell-based; settings: 10 μM peptide; flow cytometry
# T2 construct: BSM cells that express HLA-DQ8 on their surface; host or cells: BSM cells (B-cell line homozygous for HLA-DQ8)
# Description: N-terminal biotinylated peptide InsB:9-23 (or gliadin) were used to test for binding to BSM cells that express HLA-DQ8 on their surface. APC-streptavidin (BD Biosciences, Franklin Lakes, NJ) were used to detect the biotinylated peptides. […] After 24 hours incubation, cells were stained with PE-mouse anti-human HLA-DQ8 (BD Biosciences) and APC-streptavidin to detect the percent binding of the peptide to BSM cells with or without D-peptides. Percent binding was analyzed by flow cytometry.
# FIG. 23A = test: FIG. 23A
# Description: Table printed on a drawing sheet, FIG. 23A
# Data from a dose of 10 mg/kg and a single discrete subcutaneous dose of 10 mg/kg are shown. FIG. 23B is a graph showing mean RI-CT whole blood concentrations in male CD-1 mice following a single IV bolus dose of 10 mg/kg and a single SC dose of 10 mg/kg. […] This is a long half-life that will make it feasible to use RI-CT in a clinical setting with a once daily dose.
# First reader's note: SC arm; the last four rows (n, Mean, SD, CV%) are summary statistics over the animals, and the meaning of ** is not printed on the sheet.
# [4] = tested on: lymphocytes isolated from SJL-DQ8 mice immunized with GAD65; test: Ex vivo T-cell activation to GAD65 peptide, lymphocytes of GAD65-immunized SJL-DQ8 mice; type: cell-based, mouse; settings: all peptides at 20 μg/ml; 48 hours
# Description: The mouse model used in this experiment was SJL-DQ8 mice. When immunized with different type 1 diabetes associated peptides, they developed strong T-cell responses to these peptides. In the ex vivo model, lymphocytes were taken from the spleen of these mice after immunization with an Insulin or GAD65 peptide. They were then stimulated with the peptide used for immunizations and the tested D-peptide was added to see if it blocked T-cell stimulation as measured by IL-2 and interferon γ (IFNγ) production (FIGS. 18 and 19).
# The cells were treated with medium or GAD65 (with or without D-peptides), all peptides at 20 μg/ml. Supernatants from stimulated lymphocytes were collected 48 hours after stimulation and stored at −80° C. until the Luminex assay was performed. The Milliplex mouse cytokines/chemokines magnetic panel (EMD Millipore Corporation, Billerica, MA) and a Luminex 200 with xPONENT software (Luminex, Austin, Texas) were used to assay the cytokines following the manufacturer's instructions.
# T2 sequence (P01920 33-261 A45G/Y58L/E77G/D89A/H199R/T217I, other chains not shown): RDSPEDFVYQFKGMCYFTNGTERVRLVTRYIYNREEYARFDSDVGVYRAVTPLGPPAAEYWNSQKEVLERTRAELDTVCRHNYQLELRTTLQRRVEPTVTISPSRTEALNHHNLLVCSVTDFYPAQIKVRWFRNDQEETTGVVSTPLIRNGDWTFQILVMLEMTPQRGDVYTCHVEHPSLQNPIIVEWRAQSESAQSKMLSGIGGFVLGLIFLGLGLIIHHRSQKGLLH
compound,measurement,setting,value
CC(C)C[C@@H](NC(=O)[C@@H](Cc1ccc(O)cc1)NC(=O)[C@@H](CC(C)C)NC(=O)[C@H](NC(=O)[C@@H](CS)NC(=O)CNC(=O)[C@@H](CCC(=O)O)NC(=O)[C@@H](CCCNC(=N)N)NC(=O)CNC(=O)CN)C(C)C)C(=O)N[C@H](C)C(=O)N[C@H](CCC(=O)O)C(=O)N[C@@H](C(=O)NCC(=O)NCC(=O)O)C(C)C [RI-CT],inhibition of InsB:9-23 binding to HLA-DQ8 (in words),"[1]; D-peptides screened at 10 μM, recombinant HLA-DQ8",significant inhibition
same,dose dependence of the inhibition of InsB:9-23 binding to HLADQ8,"[1]; serially diluted to 0.5 μM, FIG. 3D",dose-dependent
same,"IFN-γ production, PBMCs of DQ8 positive T1D patients",[2],significantly suppressed; also recorded: significantly decreased
same,"IL-2 production, PBMCs of DQ8 positive T1D patients",[2],significantly suppressed; also recorded: significantly decreased
same,inhibition of the binding of InsB:9-23 to DQ8 expressed on BSM cells (in words),[3],inhibits the binding
same,AUClast,FIG. 23A,3830 ng·h/mL
same,MRTinf,FIG. 23A,4.50 h
same,"blocking T cell activation ex vivo to GAD65 (IL-2, IFNγ production)",[4],some activity
